# Data: patent US9901591B2, “Paeoniflorin preparations and uses thereof for fat reduction” (priority 2008, dated 2018)
# “And” between values parts separate entries of the source, which are not always exact repeats. Identical values can stand only once.
# Key:
# [1] = Blood indices before and after PF treatment in patients; format: in vivo, human
# Protocol: Eight patients were treated with PF. The levels of three indices such as serum cholesterol, LDL Cholesterol, serum triglycerides in blood were tested before and after treatment.
# [2] = tested on: 3T3-L1 adipocytes; assay: Glycerol release from differentiated 3T3-L1 adipocytes (adipolysis); format: cell-based, mouse; settings: 1 umol/L PF vs media without PF, 7th day
# Description: The 3T3-L1 cell line is an accepted model by those of skill in the art for natural fat loss. This cell line is a substrain of Swiss 3T3 mouse cell line 3T3-L1. This cell line propagated under normal conditions has a fibroblastic phenotype. However, when treated with a combination of dexamethasone, isobutylmethylxanthine (a non-specific inhibitor of phosphodiesterases) (IBMX) and insulin, 3T3 cells adopt a rounded phenotype and accumulate lipids intracellularly in the form of fat droplets. Differentiated 3T3-L1 adipocytes were cultured in media containing 1 umol/L PF as test group, and media without PF as control. As a result of lipolysis activity, glycerol will be generated as a result of triglyceride breakdown and released into the extracellular space. Glycerol content from 3T3-L1 adipocyte cell culture media may therefore provide an indicator of adipolysis.
# [3] = Targeted fat reduction with injectable PF preparation in patients; format: in vivo, human; settings: alternative protocol, 20 small (0.1 to 0.2 ml) injections per session, 5 sessions
# [4] = human, in vivo
# Protocol: For Regular Injections: After sterilization of the surface area with 74% ethanol, topical application of lignocaine ointment or lidocaine gel was applied for 5 minutes to numb the skin where the injections are to take place.
# For Booster Injection: The patient is prepared using 1 ml of 2% lidocaine to anaesthetize the site of entry of the large needle. This way, the procedure is almost painless. 3-5 minutes later, the booster injection is given slowly over a 3 minute period.
# Patients are forewarned that bruising may occur due to the injections. Thus, some bruising in a patient may be expected. […] The bruising, usually disappears within 1 week. In addition, redness and tenderness at the injection site of the booster, is very common. Redness lasts for a couple of hours and the tenderness lasts for a couple of days. Bruising, is encountered more with the booster than the regular injections, but also disappears within a week or so. Another observation is fatigue as a result of treatment in some patients. […] In addition, a very slight rise in temperature, to about 37.1 or 37.2 for a few hours, was noted.
# [5] = Fat reduction with PF/azone creme and low current in patients; format: in vivo, human
# Protocol: Concentration of PF included into the topical preparation: 0.2 mg to 0.3 mg of PF were dissolved in 1 ml of azone liquid.
# A low current of […] is then passed through pads placed on the skin of the desired treatment area which then drives the PF through the skin into the adipose tissues, thus allowing the PF to come in contact with the fat cells.
# The present preparations may be provided in the form of a creme containing 1 ml of PF at a concentration of 1 mmol mixed with 1 ml of azone which is then massaged into the target area. Azone has been extensively studied using a range of permeants. […] This process leads to increased lipid fluidity and enhanced drug diffusion. This is the reason PF was mixed with azone. Furthermore, a low current is then passed through the tissue area, which then drives the PF through the skin into the adipose tissues. PF may in this way come in contact with fat cells. The clinical results are show below and the details of each patient is documented.
# [6] = Blood indices before and after PF treatment in patients; format: in vivo, human; settings: before vs after treatment with PF
# [7] = Targeted fat reduction with injectable PF preparation in patients; format: in vivo, human
# Protocol: 1 ml of PF (1) at a concentration of 1 mol is mixed with 4 ml injectable water and 5 ml (phosphatidyl choline (PPC)) prepared from soya bean extract and 5 ml 2% lidocaine. A total of 15 ml solution. This solution is mixed together in a 20 ml syringe and the needle is changed to a small insulin needle Gauge 30×½ as shown therein before the actual injections are given. The solution is then given subcutaneously directly into the fat areas at a dose of 0.5 ml per site totaling 20 injections. These injections are spread out to cover a big surface area, e.g. could be spread out through a whole midsection (“love handle”) in case of a larger patient, or if the patient were an average size it could be spread out to cover right and left love handles in one session. For reference, please refer to the patients injected in the thigh and buttocks area, for explanation. This patient was injected with 30 smaller injections of 0.2 ml per site, and they were spread through out the whole outer and inner thigh and buttocks areas on the right side. 0.5 mg of PF was dissolved in 5 ml of injectable water rendering a concentration of 0.1 mg/ml. This was then mixed with 5 ml of Phosphatidyl Choline in a 20 ml syringe. The large gauge needle was then replaced with a smaller gauge (Gauge 27-30, in some embodiments, a 30 gauge×½) insulin needle and the 10 ml was injected into 20 different sites of a given area. 0.5 ml of the solution was injected into the stomach, with about 1 cm separating each injection site.
# [8] = per patient, number of times as in table
compound,measurement,setting,value
"C[C@@]12C[C@@]3(O)O[C@@H](O1)[C@]1(COC(=O)c4ccccc4)[C@H]3C[C@@]12O[C@@H]1O[C@H](CO)[C@@H](O)[C@H](O)[C@H]1O [PF, paeoniflorin]","Serum Triglycerides Post-tx, Ave","[1]; average of eight patients, Pre-tx Ave 79.38, P 0.462, NR: 35-160",72.50 mg/dL
same,"LDL Cholesterol Post-tx, Ave","[1]; average of eight patients, Pre-tx Ave 122.81, P 0.452, NR: 60-150",112.69 mg/dL
same,"Serum Cholesterol Post-tx, Ave","[1]; average of eight patients, Pre-tx Ave 202.88, P 0.002, NR: 50-200",172.75 mg/dL
same,"Serum cholesterol, LDL Cholesterol, serum triglycerides in blood, change after treatment","[1]; eight patients, before vs after treatment",reduced after PF treatment
same,Serum Triglycerides Post-tx,"[1]; individual cases 1-8, after PF treatment, NR: 35-160",60 mg/dL and 59 mg/dL and 67 mg/dL and 71 mg/dL and 110 mg/dL and 55 mg/dL and 85 mg/dL and 73 mg/dL
same,Serum Cholesterol Post-tx,"[1]; individual cases 1-8, after PF treatment, NR: 50-200",135 mg/dL and 151 mg/dL and 222 mg/dL and 168 mg/dL and 237 mg/dL and 150 mg/dL and 148 mg/dL and 171 mg/dL
same,LDL Cholesterol Post-tx,"[1]; individual cases 1-8, after PF treatment, NR: 60-150",75 mg/dL and 92 mg/dL and 146 mg/dL and 108 mg/dL and 176.5 mg/dL and 98 mg/dL and 93 mg/dL and 113 mg/dL
same,release of glycerol,[2],increased the release of glycerol significantly
same,measurable fat loss,[3],3 cm
same,bruising,[4],bruising was observed
same,diarrhea,[4],No diarrhea was observed
same,dizziness,[4],observed in a few patients
same,fatigue,[4],Two patients suffered from fatigue
same,redness and tenderness at the injection site,[4],very common
same,rise in temperature,[4],about 37.1 or 37.2
same,stool,[4],softer stool was reported
same,time until bruising disappears,[4],≤ 1 week
same,"AMOUNT OF REDUCTION IN CM, each side of the upper thigh","[5]; patient #3, 6 times",2 cm from each side of the upper
same,"AMOUNT OF REDUCTION IN CM, left buttock","[5]; patient #4, 7 times",9 cm from the left buttock
same,"AMOUNT OF REDUCTION IN CM, right buttock","[5]; patient #4, 7 times",8 cm from the right buttock &
same,"AMOUNT OF REDUCTION IN CM, each leg below the knees","[5]; patient #5, 8 times",9 cm and 10 cm
same,"AMOUNT OF REDUCTION IN CM, left thigh","[5]; patient #7, 9 times",6 cm
same,"AMOUNT OF REDUCTION IN CM, right thigh","[5]; patient #7, 9 times",8 cm
same,"AMOUNT OF REDUCTION, bra size","[5]; patient #8, 30 times",1.5 size in bra size
same,"AMOUNT OF REDUCTION IN CM, love handles","[5]; patient #12, 8 times",10 cm from love handles and
same,"AMOUNT OF REDUCTION IN CM, above and below the umbilicus",[5]; [8],3.5 cm above and below the
same,"AMOUNT OF REDUCTION IN CM, above the umbilicus",[5]; [8],"7 cm and 6 cm and 10 cm above the umbilicus, and 9 cm above the umbilicus. 9 cm"
same,"AMOUNT OF REDUCTION IN CM, below the umbilicus",[5]; [8],9 cm and 9.5 cm below the umbilicus and 6 cm below the umbilicus
same,"AMOUNT OF REDUCTION IN CM, midsection",[5]; [8],10 cm and 5 cm from the waist and 5 cm and 9 cm above the umbilicus. 9 cm
same,blood sugar levels,[6],decreased upon treatment
same,weight loss,"[7]; 2 sessions together with an aerobic instructor, in 2 weeks",over 3 pounds
same,"Size at End of Treatment, stomach area","[7]; Patient 1, 6 weeks/11 sessions, size before start 90 cm",83 cm
same,"Size at End of Tx, stomach area","[7]; Patient 2, 5 weeks/9 sessions, size before start 96 cm",90 cm
same,"Size at End, both upper arms","[7]; Patient 3, 1 month/8 sessions (4 per side), size before start 40 cm",36.5 cm
same,fat loss,[7]; each 10 sessions,about 7 cm
same,fat loss,[7]; in 5 sessions of 20 injections of 0.5 ml,3 cm
same,sessions until a noticeable difference was seen,"[7]; on average, sessions of 20 injections",4-5 sessions
same,fat loss,"[7]; one patient, 10 sessions over about 6 weeks",more than 5 inches
same,sessions per 1 cm of fat dissolved,"[7]; stomach and thigh areas, human",1-1.5 sessions
same,fat dissolved per session,"[7]; upper arms areas, human",about 1 cm
same,fat lost,[7]; with 10 sessions,over 5 pounds
